Experimental data from publication PMC8567104 (Frontiers in Pharmacology, 2021).
Several values for one entry are separate records, joined by “and”; a condition that tells them apart may be missing. Equal entries are not always repeated. Where two headings read alike, the source gives them in different places.

Experiments:
[1] = biological target: T1, hNav1.5 (Homo sapiens, UniProt Q14524); assay: Voltage-dependence of fast inactivation; type: cell-based; set-up: expressed in transfected cells; host or cells: tsA201 (HEK293 derivative)
Method: Electrophysiological experiments were performed as previously described ([Ludolph et al., 2010]; [Föhr et al., 2021]). Briefly, tsA201 cells were used for experiments 24–48 h after transfection. Membrane currents were recorded in the whole-cell recording mode using an EPC-9 amplifier and Patchmaster software (v2x73; HEKA, Lambrecht, Germany ([Hamill et al., 1981])). Before recording, cells were rinsed twice with an extracellular standard solution containing (in mM): 140 NaCl, 5 KCl, 1.5 CaCl2, 1.0 MgCl2, 10 glucose and 12 HEPES (4-(2-hydroxyethyl)piperazine- 1-ethanesulfonic acid; pH 7.3). For establishing activation curves, the concentration of NaCl was reduced to 30 mM to achieve current amplitudes in the range of 1 nA. Lacking cations were replaced equimolar by N-Methyl-D-glucamine (NMDG). Patch pipettes were drawn from borosilicate glass with tip resistances of about 2 MΩ when filled with (in mM): 125 CsF, 10 NaCl, 10 EGTA (ethylene glycol-bis(2-aminoethylether)-N,N,N′,N′-tetraacetic acid), 10 HEPES; pH 7.2. To improve sealing, tips were briefly dipped into 2% dimethylsilane dissolved in dichloromethane. […]
FIGURE 5 Voltage-dependence of fast inactivation. […] Voltage-dependence of fast inactivation was determined by measuring sodium currents elicited by 5 ms depolarizations to −20 mV after conditioning pre-pulses for 500 ms to different potentials (range −140 to −45 mV).

[2] = biological target: T1, hNav1.5; assay: Interaction with the inactivated state: steady-state parameters (20 s inactivation at −20 mV); type: cell-based; set-up: expressed in transfected cells; host or cells: tsA201 (HEK293 derivative); conditions: for Hill-coefficient n: concentration-inhibition curve after 20 s inactivation at −20 mV
Method: (§1) Electrophysiological experiments were performed as previously described ([Ludolph et al., 2010]; [Föhr et al., 2021]). Briefly, tsA201 cells were used for experiments 24–48 h after transfection. Membrane currents were recorded in the whole-cell recording mode using an EPC-9 amplifier and Patchmaster software (v2x73; HEKA, Lambrecht, Germany ([Hamill et al., 1981])). Before recording, cells were rinsed twice with an extracellular standard solution containing (in mM): 140 NaCl, 5 KCl, 1.5 CaCl2, 1.0 MgCl2, 10 glucose and 12 HEPES (4-(2-hydroxyethyl)piperazine- 1-ethanesulfonic acid; pH 7.3). For establishing activation curves, the concentration of NaCl was reduced to 30 mM to achieve current amplitudes in the range of 1 nA. Lacking cations were replaced equimolar by N-Methyl-D-glucamine (NMDG). Patch pipettes were drawn from borosilicate glass with tip resistances of about 2 MΩ when filled with (in mM): 125 CsF, 10 NaCl, 10 EGTA (ethylene glycol-bis(2-aminoethylether)-N,N,N′,N′-tetraacetic acid), 10 HEPES; pH 7.2. To improve sealing, tips were briefly dipped into 2% dimethylsilane dissolved in dichloromethane.
(§2) Unless otherwise stated, the membrane potential was held at −140 mV from which channel activations were elicited by brief depolarizing pulses to −20 mV of 5 ms duration. In order to minimize voltage errors, the series resistance was compensated up to 80%. Cells with currents larger than 6 nA were excluded from evaluation. Specific protocols are illustrated in figure legends where appropriate.
(§3) Concentration-inhibition curves for estimating Kr (IC 50 at −140 mV; Figure 3), Ki (Figures 8, 13, 14), Ko (Figures 12, 17) or K app (Figure 9) were fitted to the Hill-equation.
I D and I C are the current amplitudes in the presence and absence of the drug, where [D] is the concentration of the drug.
To this end, a double pulse protocol was used as outlined by Figure 8B. […] To minimize drift effects during these long-lasting experiments, each run included its own control. Thus, drug effects as measured by the test-pulse were related to the timely executed control activation. […]

[3] = biological target: T2, hNav1.5_I408W_L409C_A410W (WCW mutant) (Homo sapiens, UniProt Q14524, A410W/I408W/L409C); assay: Open channel block, persistent current of inactivation-deficient WCW mutant; type: cell-based; conditions: for Hill-coefficient: persistent current
T2 construct: expressed in transfected cells; host or cells: tsA201 (HEK293 derivative)
Method: as §1, §2, §3

[4] = biological target: T1, hNav1.5; assay: Time-dependent development of block (inactivating pre-pulse to −20 mV of variable duration); type: cell-based; set-up: expressed in transfected cells; host or cells: tsA201 (HEK293 derivative); conditions: for Amount of τ1 component / Amount of τ2 component / τ1 of block development / τ2 of block development: double exponential fit; for remaining current at the longest inactivation time: inactivation up to 30 s at −20 mV; for time constant of reduction of availability: single exponential, inactivation at −20 mV
Method: as §1, §2
Association (k on in µM^−1s^−1) and dissociation rates (k off in s^−1) were estimated from the slope and the y-intercept of a linear regression where the inverse of the fast time constants (1/τ) was plotted against the drug concentration [D] (Kuo et al., 1997). 1/τ=koff+kon∗[D] (9)
The corresponding dissociation constants were calculated according to: Kd=koff/kon (10)
Next, a set of experiments was performed to describe the time course of block development. The protocol is illustrated in Figure 7D. Briefly, after channel activation from a holding potential of −140 mV for control, ample time for full recovery at the holding potential was provided. Thereafter, the channels were inactivated for a variable duration (range: 25 ms–30 s) at a potential of −20 mV. Immediately before the test-pulse, channels were allowed to recover once more at the holding potential to eliminate or minimize the impact from fast inactivation. For evaluation, the current amplitudes obtained for test-pulses were related to their controls. […] For further evaluation, data were normalized with respect to control values (Figure 7B). […] The on-rate (k on ) was directly taken from the slope of the linear regression and the off-rate (k off ) was given by the y-intercept (Eq. 9, 10). For estimating the affinity for the inactivated state, the K i values were separately calculated for each cell according to the relation K i = k off /k on .
FIGURE 7 Time-dependent interaction. […] (B) Data from A, normalized with respect to control. […] Kon and koff values were taken from the slope and the y-intercept of the linear regression, respectively. […] (D) Experimental scheme. Starting from a holding potential of −140 mV, first a control pulse to […] was executed. Thereafter, ample time (2 s) was given to allow for full recovery before channels were inactivated for a variable duration at −20 mV. The test-pulse was carried out after a short recovery at −140 mV. For evaluation, test-pulse amplitudes were related to their controls.
FIGURE 15 Time-dependent interaction of imipridone derivatives.

[5] = biological target: T1, hNav1.5; conditions: 40 µM (highest concentration tested); holding potential −140 mV; 30 s preincubation
Method: as §1
Unless otherwise stated, the membrane potential was held at −140 mV from which channel activations were elicited by brief depolarizing pulses to −20 mV of 5 ms duration. In order to minimize voltage errors, the series resistance was compensated up to 80%. […]

[6] = biological target: hNav1.5 F1760K mutant (Homo sapiens, UniProt Q14524, F1760K, form not given); conditions: inactivated channels
Method: as §1, §3

[7] = biological target: hNav1.5 N406C mutant (Homo sapiens, UniProt Q14524, N406C); conditions: inactivated channels
Method: as §1, §3

[8] = biological target: T1, hNav1.5; assay: cell-based
Method: as §1, §2

[9] = biological target: T1, hNav1.5; conditions: 10 µM
Method: as §1, §2
Recovery time constants were estimated from double or triple exponential fits according to: I/Imax=1−a1∗e^(−t/τ1)−a2∗e^(−t/τ2)−a3∗e^(−t/τ3) (11)
Variable identifiers have the same meaning as before, with a 1 + a 2 + a 3 = 1.
If a drug interacts with the inactivated state (fast or slow), it is expected that also recovery from inactivation is affected. We analyzed this aspect by the use of a tri-pulse experiment (Figure 10B). After an initial control pulse, sufficient time was provided for full recovery. Next channels were inactivated for 500 ms at −20 mV. The test-pulse was initiated after channels had been allowed to recover at a potential of −140 mV for a variable time (range: 0.2 ms to 2.7 s). For evaluation, the current amplitudes of the test-pulses were related to their controls and plotted versus the recovery time (Figure 10A). To describe the time course of recovery, data points were fitted with double exponential functions (Eq. 11). […] In order to estimate recovery from slow inactivation, the experimental scheme was modified to a prolonged inactivation time (10 s) and an expansion of the recovery time up to 32.8 s (Figure 10D).
FIGURE 10 Recovery from inactivation. (A) Recovery from fast inactivation. The relative amount of available channels versus the recovery time at −140 mV is illustrated. Solid lines represent fits with two exponential functions according to Eq. 11. (B) Experimental scheme. After an initial control pulse, inactivation was performed at −20 mV for 500 ms. The test-pulse was applied after a varying time of recovery. For evaluation, current amplitudes of the test-pulses were related to their controls.

[10] = biological target: T1, hNav1.5
Method: as §1, §2

[11] = set-up: method as in Allen et al., 2016; conditions: weekly oral dose of 625 mg; patients; ref Allen et al., 2016; cited from earlier work

O=C1C2=C(CCN(Cc3ccccc3)C2)N2CCN=C2N1Cc1ccc(C(F)(F)F)cc1 [ONC212]
shift of midpoints of fast inactivation ([1]; 10 µM, 500 ms pre-pulses, corrected for drug independent shift): −4.7 ± 0.4 mV and −4.7 ± 0.42 mV
IC50 ([2]; after 20 s inactivation at −20 mV, short recovery at −140 mV, wild type, read-out: half-maximal inhibition (IC50), representing the affinity for the inactivated state (Ki)): 2500 ± 700 nM
Hill-coefficient n [2]: 1.5 ± 0.1
Hill-coefficient [3]: 1.4 ± 0.2
Amount of τ1 component ([4]; 2.5 µM): 8.8 ± 4.5%
Amount of τ2 component ([4]; 2.5 µM): 57.4± 6.6%
τ1 of block development ([4]; 2.5 µM): 0.2 ± 0.06 s
τ2 of block development ([4]; 2.5 µM): 4.6 ± 0.95 s
Amount of τ1 component ([4]; 10 µM): 45.2 ± 6.5%
Amount of τ2 component ([4]; 10 µM): 46.9 ± 7.2%
τ1 of block development ([4]; 10 µM): 0.1 ± 0.03 s
τ2 of block development ([4]; 10 µM): 2.2 ± 0.27 s

Cc1ccccc1CN1C(=O)C2=C(CCN(Cc3ccccc3)C2)N2CCN=C12 [TIC10]
remaining current (of control) [5]: 93.2 ± 4.3%
Hill-coefficient ([6]; F1760K mutant): 1.5 ± 0.1
reduction of affinity of F1760K mutant compared to wild type [6]: more than 20 fold
Hill-coefficient [7]: 1.2 ± 0.1
potential of half-maximal slow inactivation ([8]; 10 µM, 10 s pre-pulses, control −42.9 ± 5.0 mV): −92.7 ± 7.0 mV
slope of slow inactivation curve ([8]; 10 µM, control 21.5 ± 2.7 mV): 12.8 ± 0.9 mV
availability (remaining current amplitude) at pre-pulse potential 0 mV ([8]; 10 µM, control 45.6 ± 10.9%): 4.7 ± 2.8%
inhibition at 10 µM ([8]; read-out: inhibition normalized to control at 0 mV): 89.7 ± 6.5%
inhibition at 10 µM ([8]; read-out: inhibition normalized to control at −40 mV): 88.3 ± 5%
Amount of τ1 component ([9]; 10 s inactivation): 36.3 ± 16.0%
Amount of τ2 component ([9]; 10 s inactivation): 62.2 ± 15.7%
τ1 for recovery from slow-inactivation ([9]; 10 s inactivation): 128.1 ± 80.3 ms
τ2 for recovery from slow-inactivation ([9]; 10 s inactivation): 548.4 ± 287.4 ms
proportion of fast recovering channels ([9]; 500 ms inactivation at −20 mV, recovery at −140 mV, control 92.6 ± 4.0%): 75.6 ± 7.0%
recovery time constant τ1 ([9]; control 1.4 ± 0.6 ms): 2.3 ± 1.2 ms
recovery time constant τ2 ([9]; control 23.6 ± 12.0 ms): 267.6 ± 73.1 ms
current amplitude in the presence of TIC10 compared to control ([10]; 10 µM, holding potential −90 mV, depolarization to −20 mV): about half of its size
slope (k) of activation curve ([10]; in the presence of 10 µM, control 7.2 ± 0.6 mV): 7.9 ± 0.8 mV
potential of half-maximal activation (midpoint of activation curve) ([10]; in the presence of 10 µM, control −43.1 ± 2.9 mV): −44.8 ± 2.8 mV
slope of fast inactivation curve ([1]; in the presence of 10 µM, 5.3 ± 0.9 mV in the absence): 5.4 ± 0.9 mV
Hill-coefficient n [2]: 1.2 ± 0.1
Hill-coefficient [3]: 0.9 ± 0.1
effect on transient current (resting state) ([3]; up to 40 µM): hardly affected
maximal plasma concentration [11]: 4.3 µM
remaining current at the longest inactivation time ([4]; 2.5 µM, control 59.2 ± 7.7%): 46.0 ± 4.8%
time constant of reduction of availability ([4]; 2.5 µM, control 10.1 ± 2.0 s): 5.3 ± 1.9 s
remaining current at the longest inactivation time ([4]; 10 µM): 16.9 ± 6.4%
time constant of reduction of availability ([4]; 10 µM): 2.0 ± 0.8 s
